One experiment deals with T1, BRD4 (BDI_K57-E168) (Homo sapiens, UniProt O60885).
T1 construct: BD1: amino acids K57-E168; made in house
Description: TR-FRET bromodomain binding assay, first bromodomain of BRD4. The following applies: 100 nM probe. Put shortly: (§1)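 Compound dilutions are mixed with His-tagged BRD4 bromodomain (8 nM), europium anti-His antibody (1 nM) and Alexa647 probe (BDI 100 nM; BDII 30 nM) in pH 6.0 buffer containing 2% DMSO. After equilibrating one hour at room temperature, TR-FRET is measured; percent inhibition is fitted to obtain IC50, from which Ki is calculated.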
In general terms: In TR-FRET formats the signal depends on donor and acceptor labels being close together.

Experiment [1] relates to breast cancer cell line MX-1. The experiment is described as follows: MX-1 cell line proliferation assay. The class given is cell-based. The following applies: MX-1 cells, 3-day proliferation assay, Cell Titer Glo; read-out: Cellular proliferation: EC50. The procedure, abridged: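 MX-1 cells at 5000/well, in RPMI 1640 with 10% FBS, were exposed to compounds for 3 days. Final concentrations ranged 3 μM–0.1 nM or 1 μM–0.03 nM, in 3-fold steps. Cell Titer Glo luminescence was normalized to DMSO and fitted sigmoidally for EC50; overall MSR 2.1.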

The next experiment concerns the target T2, BRD4 (BDII_E352-M457) (Homo sapiens, UniProt O60885).
T2 construct: protocol; made in house
Description: TR-FRET bromodomain binding assay, second bromodomain of BRD4. The following applies: 30 nM probe. Put shortly:
as §1

[2] abbreviates: TR-FRET assay protocol G (compound 0.92 μM-15 pM).
Setting [3] is: TR-FRET assay protocol E (compound 9.19 μM-150 pM).

In general, Ki refers to a measure of affinity in units of concentration, obtained from inhibition or displacement.

Bounds are passed on as bounds.

As to `Cn1cc2c3c(c(C#N)[nH]c3c1=O)CN(c1ccc(Cl)cc1)c1ccccc1-2` [Example 201, 4-(4-chlorophenyl)-10-methyl-11-oxo-3,4,10,11-tetrahydro-1H-1,4,10-triazadibenzo[cd,f]azulene-2-carbonitrile], the inhibition constant (Ki) on BRD4 (BDI_K57-E168) (setting [2]) is 0.85 nM; at BRD4 (BDII_E352-M457) (setting [2]) it was 3.2 nM. Also, the EC50 in experiment [1] is 27.8 nM.

Regarding `Cn1cc2c3c(c[nH]c3c1=O)C(c1ccc(-n3ccnc3)cc1)N(c1ccc(F)cc1F)c1ccc(CS(C)(=O)=O)cc1-2` (racemic) [Example 234, 3-(4-(1H-imidazol-1-yl)phenyl)-4-(2,4-difluorophenyl)-10-methyl-7-((methylsulfonyl)methyl)-3,4-dihydro-1H-1,4,10-triazadibenzo[cd,f]azulen-11(10H)-one], the Ki on BRD4 (BDI_K57-E168) (setting [2]) was 10.3 nM; on BRD4 (BDII_E352-M457) (setting [2]), 9.4 nM. For the same compound, the EC50 in experiment [1] is more than 1000 nM.

For `Cn1cc2c3c(c[nH]c3c1=O)CN(C(=O)Nc1c(F)cccc1F)c1ccc(CS(C)(=O)=O)cc1-2` [Example 70, N-(2,6-difluorophenyl)-10-methyl-7-((methylsulfonyl)methyl)-11-oxo-10,11-dihydro-1H-1,4,10-triazadibenzo[cd,f]azulene-4(3H)-carboxamide], the Ki on BRD4 (BDI_K57-E168) (setting [2]) came to 7.41 nM; at BRD4 (BDII_E352-M457) (setting [2]), 1.88 nM. The EC50 in experiment [1] stood at 131 nM.

With “4-(2-(3-(dimethylamino)propoxy)benzyl)-10-methyl-7-((methylsulfonyl)methyl)-3,4-dihydro-1H-1,4,10-triazadibenzo[cd,f]azulen-11(10H)-one [Example 260]”, the inhibition constant Ki came out at 7.26 nM on BRD4 (BDI_K57-E168) (setting [2]) and 3.4 nM at BRD4 (BDII_E352-M457) (setting [2]). The EC50 in experiment [1] is 219 nM.

As to `Cn1cc2c3c(c[nH]c3c1=O)C(C1CCOCC1)N(c1ccc(F)cc1F)c1ccc(CS(C)(=O)=O)cc1-2` (stereo not drawn) [Example 228, 4-(2,4-difluorophenyl)-10-methyl-7-((methylsulfonyl)methyl)-3-(tetrahydro-2H-pyran-4-yl)-3,4-dihydro-1H-1,4,10-triazadibenzo[cd,f]azulen-11(10H)-one], the inhibition constant Ki on BRD4 (BDI_K57-E168) (setting [2]) came out at 24.5 nM; at BRD4 (BDII_E352-M457) (setting [2]), 2.22 nM. The EC50 in experiment [1] was 84.9 nM.

Consider `Cn1cc2c3c(c[nH]c3c1=O)CN(C(=O)Oc1ccccc1)c1ccc(CS(C)(=O)=O)cc1-2` [Example 93, phenyl 10-methyl-7-((methylsulfonyl)methyl)-11-oxo-10,11-dihydro-1H-1,4,10-triazadibenzo[cd,f]azulene-4(3H)-carboxylate], for which the Ki on BRD4 (BDI_K57-E168) (setting [2]) was determined as 2.84 nM; on BRD4 (BDII_E352-M457) (setting [2]) it was 1.63 nM. In experiment [1], the EC50 came out at 2.59 nM.

In the case of `Cn1cc2c3c(c[nH]c3c1=O)CN(C1CCC(N)CC1)c1ccc(CS(C)(=O)=O)cc1-2` (mixture of isomers) [Example 212, 4-(4-aminocyclohexyl)-10-methyl-7-((methylsulfonyl)methyl)-3,4-dihydro-1H-1,4,10-triazadibenzo[cd,f]azulen-11(10H)-one], the Ki on BRD4 (BDI_K57-E168) (setting [2]) was 2.39 nM; at BRD4 (BDII_E352-M457) (setting [2]) it was 5 nM. The EC50 in experiment [1] was 155 nM.

For `Cn1cc2c3c(c[nH]c3c1=O)C(CCCO)N(c1ccc(F)cc1F)c1ccc(CS(C)(=O)=O)cc1-2` (stereo not drawn) [Example 142, 4-(2,4-difluorophenyl)-3-(3-hydroxypropyl)-10-methyl-7-((methylsulfonyl)methyl)-3,4-dihydro-1H-1,4,10-triazadibenzo[cd,f]azulen-11(10H)-one], the Ki at BRD4 (BDI_K57-E168) (setting [2]) is 8.61 nM; on BRD4 (BDII_E352-M457) (setting [2]) it was 0.6 nM. The EC50 in experiment [1] was 51.8 nM.

For “4-(1H-indazol-5-yl)-10-methyl-7-((methylsulfonyl)methyl)-3,4-dihydro-1H-1,4,10-triazadibenzo[cd,f]azulen-11(10H)-one [Example 246]”, the Ki at BRD4 (BDI_K57-E168) (setting [2]) came out at 4.32 nM; on BRD4 (BDII_E352-M457) (setting [2]), 3.6 nM. Also, the EC50 in experiment [1] was 11.7 nM.

With `Cn1cc2c3c(c[nH]c3c1=O)CN(Cc1ccccn1)c1ccc(CS(C)(=O)=O)cc1-2` [Example 249, 10-methyl-7-((methylsulfonyl)methyl)-4-(pyridin-2-ylmethyl)-3,4-dihydro-1H-1,4,10-triazadibenzo[cd,f]azulen-11(10H)-one], the Ki on BRD4 (BDI_K57-E168) (setting [2]) turned out to be 6.1 nM; at BRD4 (BDII_E352-M457) (setting [2]), 19.1 nM. The EC50 in experiment [1] came to 17.7 nM.

As to `Cn1cc2c3c(c[nH]c3c1=O)C(c1cccc(C#N)c1)N(c1ccc(F)cc1F)c1ccc(CS(C)(=O)=O)cc1-2` (stereo not drawn) [Example 237, 3-(4-(2,4-difluorophenyl)-10-methyl-7-((methylsulfonyl)methyl)-11-oxo-3,4,10,11-tetrahydro-1H-1,4,10-triazadibenzo[cd,f]azulen-3-yl)benzonitrile], the Ki on BRD4 (BDI_K57-E168) (setting [2]) is 21.8 nM; on BRD4 (BDII_E352-M457) (setting [2]), 12.1 nM. Further, the EC50 in experiment [1] is 313 nM.

Regarding `Cn1cc2c3c(c[nH]c3c1=O)C(CCCOc1ccccc1)N(c1ccc(F)cc1F)c1ccc(CS(C)(=O)=O)cc1-2` (single isomer, unassigned) [Example 144], the Ki at BRD4 (BDI_K57-E168) (setting [2]) is more than 238 nM; on BRD4 (BDII_E352-M457) (setting [2]), 18.8 nM. Besides, the EC50 in experiment [1] was determined as 318 nM.

For `Cc1ccc(OC(=O)N2Cc3c[nH]c4c(=O)n(C)cc(c34)-c3cc(CS(C)(=O)=O)ccc32)cc1` [Example 91, p-tolyl 10-methyl-7-((methylsulfonyl)methyl)-11-oxo-10,11-dihydro-1H-1,4,10-triazadibenzo[cd,f]azulene-4(3H)-carboxylate], the Ki at BRD4 (BDI_K57-E168) (setting [2]) was 3.27 nM; at BRD4 (BDII_E352-M457) (setting [2]), 1.15 nM. For the same compound, the EC50 in experiment [1] stood at 1.81 nM.

Turning to `Cn1cc2c3c(c[nH]c3c1=O)C(CCC(=O)NC1CCS(=O)(=O)C1)N(c1ccc(F)cc1F)c1ccc(CS(C)(=O)=O)cc1-2` (stereo not drawn) [Example 124, 3-(4-(2,4-difluorophenyl)-10-methyl-7-((methylsulfonyl)methyl)-11-oxo-3,4,10,11-tetrahydro-1H-1,4,10-triazadibenzo[cd,f]azulen-3-yl)-N-(1,1-dioxidotetrahydrothiophen-3-yl)propanamide], the figures for the Ki on BRD4 (BDI_K57-E168) (setting [2]) and at BRD4 (BDII_E352-M457) (setting [2]) were 8.84 nM and 2.78 nM, respectively. Besides, in experiment [1], the EC50 came out at 944 nM.

On to `Cn1cc2c3c(c[nH]c3c1=O)C(c1ccccc1-c1ccccc1)N(c1ccc(F)cc1F)c1ccc(CS(C)(=O)=O)cc1-2` (stereo not drawn) [Example 230], for which the Ki was more than 238 nM at BRD4 (BDI_K57-E168) (setting [2]) and 58.1 nM at BRD4 (BDII_E352-M457) (setting [2]). Besides, in experiment [1], the EC50 worked out at 528 nM.

In the case of `Cn1cc2c3c(c[nH]c3c1=O)C(CN1C(=O)c3ccccc3C1=O)N(c1ccc(F)cc1F)c1ccc(CS(C)(=O)=O)cc1-2` (stereo not drawn) [Example 117, 2-((4-(2,4-difluorophenyl)-10-methyl-7-((methylsulfonyl)methyl)-11-oxo-3,4,10,11-tetrahydro-1H-1,4,10-triazadibenzo[cd,f]azulen-3-yl)methyl)isoindoline-1,3-dione], the values for the Ki on BRD4 (BDI_K57-E168) (setting [2]) and at BRD4 (BDII_E352-M457) (setting [2]) were 72.3 nM and 1.27 nM, respectively. Moreover, the EC50 in experiment [1] is more than 1000 nM.

For the compound `Cn1cc2c3c(c[nH]c3c1=O)CN(CC1CCN(C(=O)OC(C)(C)C)CC1)c1ccc(CS(C)(=O)=O)cc1-2` [Example 28], the Ki at BRD4 (BDI_K57-E168) (setting [3]) turned out to be 1.1 nM; on BRD4 (BDII_E352-M457) (setting [3]), 1.17 nM. Moreover, the EC50 in experiment [1] came out at 13.7 nM.

Consider `Cn1cc2c3c(c[nH]c3c1=O)C(CCC(=O)N1CCOCC1)N(c1ccc(F)cc1F)c1ccc(CS(C)(=O)=O)cc1-2` (stereo not drawn) [Example 120, 4-(2,4-difluorophenyl)-10-methyl-7-((methylsulfonyl)methyl)-3-(3-morpholino-3-oxopropyl)-3,4-dihydro-1H-1,4,10-triazadibenzo[cd,f]azulen-11(10H)-one], for which the inhibition constant Ki was 9.28 nM on BRD4 (BDI_K57-E168) (setting [2]) and 1.59 nM at BRD4 (BDII_E352-M457) (setting [2]). Further, in experiment [1], the EC50 is more than 1000 nM.

(Values after patent publication US10035800B2 (AbbVie Inc., priority 2013, dated 2018).)
